Test results published in patent US20200352912A1, “ANTIMICROBIAL COMPOSITIONS AND METHODS OF USING THE SAME” (The Board Of Supervisors Of Louisiana State University And …, priority 2018, published 2020).
Entries after “also recorded” stand apart in the source; their conditions may differ.

Legend:
[1] = system: S. aureus NRS383; assay: planktonic antimicrobial assay (OD600 growth); format: cell-based, Staphylococcus aureus; details: 100 μg/ml (inhibitor-specific concentrations b175), OD600 up to 24 h
Protocol: Effect of COX enzyme inhibitors or PGE2 EP receptor antagonists on microbial growth. The antimicrobial activity of selective COX enzyme inhibitor or PGE2 EP receptor antagonist on the growth of C. albicans DAY185 (A), S. aureus NRS383 (B) and MRSA and MSSA clinical isolates (C). Growth of C. albicans and S. aureus was monitored for up to 24 h in medium alone or supplemented with DMSO or EP receptor antagonists or COX enzyme inhibitor at physiologically relevant concentrations. Data shown are representative of three independent experiments.
C. albicans and S. aureus were grown as described above. […] Cells were grown with shaking as described above, and 1 ml aliquots were removed each hour in duplicate and optical density at 600 nm measured (OD600) by spectrophotometer (Biomate 3S, Thermo Scientific).

[2] = system: C. albicans and S. aureus; assay: mouse C. albicans-S. aureus polymicrobial intra-abdominal infection; format: in vivo, mice
Protocol: Effect of inhibition of EP4 receptor signaling on survival. Mice received either vehicle or EP4 receptor antagonist at a dose of 10 mg/kg by i.p. injection as indicated in Materials and Methods. Mortality was assessed using Kaplan Meier test (***P<0.001; n=20/group) compared to control groups. Data shown are representative of three replicate experiments.
The mouse peritonitis/intra-abdominal model was performed as previously described (8). In brief, for MRSA peritonitis, mice were injected intraperitoneally (i.p.) with 4×10^6 CFU or 5×10^6 CFU or 2×10^7 CFU of S. aureus in 0.2 ml of PBS containing 3% hog gastric mucin type III (Sigma Aldrich). Mice injected i.p. with 0.2 ml of mucin/PBS served as a negative infection control. For the intra-abdominal infection with C. albicans and S. aureus, mice were injected i.p. with 7×10^6 CFU of C. albicans and 8×10^7 CFU of S. aureus (8.7×10^7 CFU total) in 0.2 ml of PBS. After inoculation, mice were observed over 10 days for signs of morbidity (hunched posture, inactivity, lethargy, and ruffled fur) and mortality. […] In the MRSA peritonitis experiments, mice were sacrificed at 24 or 48 h post-inoculation to assess microbial burden. Peritoneal cavities were lavaged by injection of 2 ml of sterile PBS followed by gentle massaging of the peritoneal cavity. Peritoneal lavage fluid then was removed using a pipette inserted into a small incision in the abdominal cavity. Spleens were removed, weighed, and mechanically homogenized prior to CFU analysis. Microbial burdens in the peritoneal lavage fluid and spleen were enumerated as described above.
Each inhibitor was prepared fresh as a concentrated stock (20-25 mg/ml) in DMSO and diluted to a working concentration of […] in sterile PBS (final DMSO concentration, 2.3%). A sham treatment containing only 2.3% DMSO in PBS was also prepared. For the MRSA peritonitis study, the EP4 receptor antagonist was administered 2 h after S. aureus inoculation and once daily thereafter until day 4 post inoculation. For the IAI co-infection study, COX inhibitor or vehicle control was administered 4 h prior to and 4 and 8 h after inoculation with C. albicans and S. aureus while the EP receptor antagonists were administered daily starting 1 day prior to and 5 days after infection. All other procedures were performed as described above. Control groups received the vehicle at the same dose interval.
In a final set of experiments, we evaluated the ability of L-161, 982 to reduce lethality in co-infected mice. Mice co-inoculated with the standard 7×106 C. albicans CFU and 8×107 S. aureus CFU (8.7×10^7 CFU total) were treated with L-161, 982 (10 mg/kg) 2 h post infection and once daily afterwards until day 5. […]

[3] = system: C. albicans and S. aureus; details: mouse, in vivo; cited from earlier work
[4] = system: S. aureus in polymicrobial biofilms; details: 1,600 μg/ml; cited from earlier work

CC(C(=O)Nc1cc(C#N)ccc1CCCC(=O)O)c1ccc(F)c2ccccc12 (centres unmarked) [ONO AE3 208]
growth of S. aureus [1]: no antimicrobial effect | effect on survival ([2]; 10 mg/kg i.p.): no effect; also recorded: did not enhance survival | antimicrobial effect on S. aureus in vivo ([2]; mouse, in vivo): no antimicrobial effect

COc1ccc2c(c1)c(CC(=O)O)c(C)n2C(=O)c1ccc(Cl)cc1 [indomethacin]
mortality of co-infected mice [3]: prevented mortality

CN[C@H](CC(C)C)C(=O)N[C@H]1C(=O)N[C@@H](CC(N)=O)C(=O)N[C@H]2C(=O)N[C@H]3C(=O)N[C@H](C(=O)N[C@H](C(=O)O)c4cc(O)cc(O)c4-c4cc3ccc4O)[C@H](O)c3ccc(c(Cl)c3)Oc3cc2cc(c3O[C@@H]2O[C@H](CO)[C@@H](O)[C@H](O)[C@H]2O[C@H]2C[C@](C)(N)[C@H](O)[C@H](C)O2)Oc2ccc(cc2Cl)[C@H]1O [vancomycin]
viability of S. aureus in polymicrobial biofilms [4]: no effect on viability
